Columns and labels:
HDAC8 = biological target: T1, HDAC8 (Homo sapiens, UniProt Q9BY41); conditions: cited from earlier work
T1 sequence (Q9BY41 1-377): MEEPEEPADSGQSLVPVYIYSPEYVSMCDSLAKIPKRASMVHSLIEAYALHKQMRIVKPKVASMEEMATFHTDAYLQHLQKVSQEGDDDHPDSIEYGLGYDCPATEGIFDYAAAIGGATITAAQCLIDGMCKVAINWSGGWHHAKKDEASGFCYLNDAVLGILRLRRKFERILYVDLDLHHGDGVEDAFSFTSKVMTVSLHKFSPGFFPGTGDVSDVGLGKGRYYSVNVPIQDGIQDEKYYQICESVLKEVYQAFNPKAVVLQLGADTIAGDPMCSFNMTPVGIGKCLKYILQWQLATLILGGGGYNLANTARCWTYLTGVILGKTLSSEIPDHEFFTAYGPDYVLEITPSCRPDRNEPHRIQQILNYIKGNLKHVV

HL60, U937 and Jurkat = assay: MTT assay after 72 hours, sensitive cell lines; type: cell-based; conditions: Homo sapiens, 72 h exposure
Description: (§1) Protein was analyzed by Western blot and qRT-PCR was performed with Fast SYBR Green on a StepOnePlus Real-Time PCR System. […] Combination Index (CI) was determined using Chou & Talalay analysis; CI<1 reflects synergy, CI=1 additivity and CI>1 reflects antagonism.
(§2) Four established human cell lines derived from acute (HL60, U937) or chronic (K562) myeloid leukemia cells, and acute lymphoblastic leukemia cells (Jurkat) were treated with increasing doses of compound (1-1). MTT assays were performed after 72 hours exposure. GI50 and Emax values were calculated with the equation for sigmoidal dose response using Prism 5.00 and cell lines were classified as sensitive or resistant.
(§3) Five established human cell lines from acute and chronic acute myeloid leukemia (HL-60, U937, K562) and acute lymphoblastic leukemia (Jurkat, MOLT-3) were used. […] At each time point, compound 1-1 extracellular and intracellular concentrations were analyzed in cell supernatant and pellets respectively, using an Ultra Performance Liquid Chromatography with tandem Mass Spectrometry (concentration range 1-250 ng/mL). […] In addition, in cell pellets protein modulation was analyzed by Western blot using commercial antibodies and qRT-PCR was performed using Fast SYBR Green on a StepOnePlus RT-PCR System.

[1] = phase Ib dose-finding study, population pharmacokinetics; type: in vivo, human
Description: An oncology phase Ib trial of compound (1-1) was conducted by the inventors with the primary objective of investigating escalation of the dose of compound (1-1) administered to patients with acute leukemia or other hematologic malignancies. The study enrolled patients with acute leukemia or other hematologic malignancies. The patients received several active dose levels of compound (1-1) ranging from 10 mg to 160 mg according to different dosing schedules. Blood samples from 7 time points were collected from each patient over 24 hours post-administration on Day 1 for leukemia patients (“complete PK”) and 4 blood samples were collected from each patient over 8 hours post-administration for patients with other hematologic malignancies (“limited PK”). compound (1-1) plasma concentrations were measured on the basis of the blood samples using validated ultra performance liquid chromatography with tandem mass spectrometry detection with a concentration range 1-250 ng/mL. Analyses and population pharmacokinetics (PPK) modeling were performed with the nonlinear mixed effect modeling software program Monolix version 4.3. Pharmacokinetic Parameters, including absorption constant (Ka); apparent distribution volume (V/F), apparent clearance (CL/F) and lean body mass (LBM; calculated calculated considering patient sex, weight and height) were calculated.
85 patients enrolled in the phase Ib trial of compound (1-1) and were treated from January 2013 to August 2014. The patients were randomized to […]: 10 mg, 20 mg, 40 mg, 80 mg, 120 mg and 160 mg once a day dosing (QD); and 40 mg twice a day dosing (BID). Among them, 81 patients with 630 plasma concentrations (607+23 BLQ) were evaluable for PK assessment. A 1-compartment open model adequately described the total compound (1-1) concentration-time curve. […] In the PPK study, the best simulation model was obtained when LBM was considered in the analysis. A correlation between CL/F and V/F was also observed for compound (1-1).

[2] = tested on: HL-60, U937, K562, Jurkat, MOLT-3; assay: cellular PK: extracellular and intracellular concentrations by UPLC-MS/MS; type: in vitro ADME, human; conditions: 500 nM
Description: (§4) Five established human cell lines from acute and chronic acute myeloid leukemia (HL-60, U937, K562) and acute lymphoblastic leukemia (Jurkat, MOLT-3) were used. […] For cellular PK studies, cells were seeded at 2·10^6 cells/ml and exposed to 500 nM compound 1-1 for 0, 5, 15, 30, 60, 120 and 360 minutes. At each time point, compound 1-1 extracellular and intracellular concentrations were analyzed in cell supernatant and pellets respectively, using an Ultra Performance Liquid Chromatography with tandem Mass Spectrometry (concentration range 1-250 ng/mL). Experiments were performed in quadruplicate. In addition, in cell pellets protein modulation was analyzed by Western blot using commercial antibodies and qRT-PCR was performed using Fast SYBR Green on a StepOnePlus RT-PCR System.

[3] = tested on: other cell lines (K-562, NALM-1, CCRF-CEM, MOLT-3/-4); assay: MTT assay after 72 hours, other cell lines; type: cell-based; conditions: Homo sapiens, 72 h exposure
Description: as §1, §2, §3

CMYC [4] = assay: CMYC modulation (Western blot, qRT-PCR) in resistant cell line K562; type: cell-based, human; conditions: K562, 500 nM
Description: as §4

CMYC [5] = assay: CMYC modulation (Western blot, qRT-PCR) in sensitive cell lines HL60 and Jurkat; type: cell-based, human; conditions: 500 nM
Description: as §4

[6] = patients, PPK 1-compartment model
[7] = sensitive and resistant leukemic cell lines

Row | GI50 (HL60, U937 and Jurkat) | half-life ([1]; human, plasma, oral, all patients, read-out: mean elimination half-life (converted)) | Tmax ([1]; human, plasma, oral, patients) | absorption constant Ka ([1]; patients, 10-160 mg oral, PPK 1-compartment model) | apparent clearance CL/F [1, 6] | apparent distribution volume V/F [1, 6] | intracellular concentration, mean [2, 7] | intracellular concentration, range [2, 7] | time to cellular uptake [2, 7] | extracellular levels ([2]; stable up to 6 h of incubation) | GI50 [3] | SMILES | IC50 (HDAC8) | exposure time after which CMYC mRNA levels downregulation was observed (CMYC [4]) | CMYC protein and mRNA levels (CMYC [5])
1 | – | – | – | – | – | – | – | – | – | – | – | Cc1cc(Cl)ccc1OCCCC(=O)NO [Droxinostat, 4-(4-Chloro-2-methylphenoxy)-N-hydroxybutanamide] | 1460 nM | – | –
2 | 230 to 384 nM | 5.8 h | 1 to 4 h | 0.74 h⁻¹ | 8.45 L/h | 71.7 L | ~15 ng/106 cells | 3-23 ng·mL-1/106 cells | < 5 min | ~200 ng/mL | ≥ 6000 nM | Cc1sc2c(c1C)C(c1ccc(Cl)cc1)=N[C@@H](CC(=O)Nc1ccc(O)cc1)c1nnc(C)n1-2 [Compound (1-1), 2-[(6S)-4-(4-chlorophenyl)-2,3,9-trimethyl-6H-thienol[3,2-f]-[1,2,4]triazolo[4,3-a][1,4]diazepin-6-yl]-N-(4-hydroxyphenyl)acetamide dihydrate] | – | 2 h | rapid downregulation

From patent publication US9956228B2, “Method of treating acute myeloid leukemia and/or acute lymphoblastic leukemia using thienotriazolodiazepine compounds” (ONCOETHIX GMBH, priority 2014, dated 2018)
